US12337022B2, “Use of a vegetable extract from salvia haenkei as an active agent in the treatment of heart diseases” (Altergon S.A., priority 2021, dated 2025)

Legend:
Sprague-Dawley rats = assay: Echocardiography in rat model of DOXO-induced cardiotoxicity; format: in vivo; settings: DOXO-treated animals not receiving SH
Experimental: For in vivo experiments, considering that a water intake for adult rat is about 30-40 ml/day, 1.25 gr of SH extract was diluted in 300 ml of water, achieving a daily dose of […] (extract/body weight).
Adult female Sprague-Dawley rats (250-300 g body weight) were injected with six intraperitoneal doses of DOXO (Sigma) delivered at regular intervals from Day 1 to Day 11 (cumulative dose=15 mg/kg). During the treatment, rats were given ad libitum access to water containing SH. Rats received a daily dose of about 0.5 mg/Kg of SH.
Echocardiographic assessment, animals were anaesthetized at the indicated time points with 2.0-2.5% isoflurane. Transthoracic echocardiography was performed using the Vevo 2100 high-resolution imaging system (VisualSonic) equipped with a 13-24-MHz linear transducer. Analyses were performed on Days 0 (baseline), 12, 19. Two-dimensional short-axis M-mode echocardiography was performed. All M-mode tracing measurements were averaged from a minimum of three cardiac cycles. Investigators were blinded to the animals' identity.

Experimental for beating human iPS-CM: Traces were recorded every 24 hours for 7 consecutive days from the beginning of the DOXO treatment (day 0-3 h).

COc1cccc2c1C(=O)c1c(O)c3c(c(O)c1C2=O)C[C@@](O)(C(=O)CO)C[C@@H]3O[C@H]1C[C@H](N)[C@H](O)[C@H](C)O1 [DOXO, Doxorubicin]
left end systolic volume (LVESV) (Sprague-Dawley rats): increased over time | left ventricular ejection fraction (LVEF) (Sprague-Dawley rats): significant decrease | QT interval (beating human iPS-CM): induces prolongation on QT interval
